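Results reflect a 48-hour exposure of cells in 96-well plates to compound at five concentrations. The concentration for 50% growth inhibition is given as GI50.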 Calls of active or inactive are those of the source. Cut-off read from the data, not from the text of the source: active = GI50 up to about 1.1 µM and inactive = higher.
Assays:
Test in all cases: NCI tumour cell line growth inhibition, 48 h
PC-3 = test system: PC-3
OVCAR-3 = test system: OVCAR-3
OVCAR-5 = test system: OVCAR-5
HCC 2998 = test system: HCC 2998
NCI/ADR-RES = test system: NCI/ADR-RES
COLO 205 = test system: COLO 205
SNB-19 = test system: SNB-19
A549 = test system: A549
CCRF-CEM = test system: CCRF-CEM
RPMI-8226 = test system: RPMI-8226
MDA-MB-435 = test system: MDA-MB-435
BT-549 = test system: BT-549
Malme-3M = test system: Malme-3M
IGROV-1 = test system: IGROV-1
NCI-H226 = test system: NCI-H226
RXF 393 = test system: RXF 393
A498 = test system: A498
CAKI-1 = test system: CAKI-1
EKVX = test system: EKVX

Measured: GI50

CC(C)/C(Cl)=N/OC(=O)Nc1cccc(C(F)(F)F)c1
active: CCRF-CEM 0.532 µM
inactive: PC-3 16.2 µM | OVCAR-3 3.84 µM | OVCAR-5 18.9 µM | HCC 2998 15.8 µM | NCI/ADR-RES 5.5 µM | COLO 205 2.07 µM | SNB-19 19 µM | A549 19.3 µM | RPMI-8226 1.56 µM | MDA-MB-435 11.8 µM | BT-549 3.64 µM | Malme-3M 1.6 µM | IGROV-1 13.4 µM | NCI-H226 12.5 µM | RXF 393 5.9 µM | A498 18.7 µM | CAKI-1 1.75 µM | EKVX 2.61 µM

CCc1c2c([nH]c(=S)c1C#N)CCC2
inactive: PC-3 > 100 µM | OVCAR-3 > 100 µM | OVCAR-5 > 100 µM | HCC 2998 > 100 µM | NCI/ADR-RES > 100 µM | COLO 205 > 100 µM | SNB-19 > 100 µM | A549 > 100 µM | CCRF-CEM 48.8 µM | RPMI-8226 > 100 µM | MDA-MB-435 > 100 µM | BT-549 > 100 µM | Malme-3M > 100 µM | IGROV-1 > 100 µM | NCI-H226 > 100 µM | RXF 393 > 100 µM | A498 > 100 µM | CAKI-1 > 100 µM | EKVX 16.9 µM

CC(C)(C)OC(=O)NCCCCC(N)C(N)=O (stereo unspecified)
inactive: PC-3 > 100 µM | OVCAR-3 > 100 µM | OVCAR-5 > 100 µM | HCC 2998 > 100 µM | NCI/ADR-RES > 100 µM | COLO 205 > 100 µM | SNB-19 > 100 µM | A549 > 100 µM | CCRF-CEM > 100 µM | RPMI-8226 > 100 µM | MDA-MB-435 > 100 µM | BT-549 > 100 µM | Malme-3M > 100 µM | IGROV-1 > 100 µM | NCI-H226 > 100 µM | RXF 393 > 100 µM | A498 > 100 µM | CAKI-1 > 100 µM | EKVX > 100 µM

Cc1c(C)c(S(=O)(=O)N(CCCN)OCCCN)c(C)c2c1OC(C)(C)C2
inactive: PC-3 17.7 µM | OVCAR-3 21.4 µM | OVCAR-5 23.5 µM | HCC 2998 19.5 µM | NCI/ADR-RES > 100 µM | COLO 205 17.1 µM | SNB-19 15.4 µM | A549 44.1 µM | CCRF-CEM 30 µM | RPMI-8226 42.3 µM | MDA-MB-435 53.7 µM | BT-549 30.5 µM | Malme-3M 18.5 µM | IGROV-1 22.9 µM | NCI-H226 72.1 µM | RXF 393 15.2 µM | A498 18.8 µM | CAKI-1 34.4 µM | EKVX 16.3 µM

C[N+](C)(C)c1ncnc2c1ncn2C1CCCO1 (stereo unspecified)
inactive: PC-3 > 100 µM | OVCAR-3 > 100 µM | OVCAR-5 > 100 µM | HCC 2998 > 100 µM | NCI/ADR-RES > 100 µM | COLO 205 > 100 µM | SNB-19 > 100 µM | A549 > 100 µM | CCRF-CEM > 100 µM | RPMI-8226 > 100 µM | MDA-MB-435 > 100 µM | BT-549 > 100 µM | Malme-3M > 100 µM | IGROV-1 > 100 µM | NCI-H226 > 100 µM | RXF 393 > 100 µM | A498 > 100 µM | EKVX > 100 µM

COc1nc2c(c(=O)[nH]1)N=C(c1ccc([N+](=O)[O-])cc1)CC(c1ccccc1)N2 (stereo unspecified)
inactive: PC-3 84.3 µM | OVCAR-3 > 100 µM | OVCAR-5 > 100 µM | HCC 2998 > 100 µM | NCI/ADR-RES > 100 µM | COLO 205 > 100 µM | SNB-19 > 100 µM | A549 83.4 µM | CCRF-CEM 37.9 µM | RPMI-8226 44.1 µM | MDA-MB-435 > 100 µM | BT-549 > 100 µM | Malme-3M > 100 µM | IGROV-1 > 100 µM | NCI-H226 > 100 µM | RXF 393 94.6 µM | A498 > 100 µM | CAKI-1 > 100 µM | EKVX 95.9 µM

C=CCN(c1cc(OC)c(NC(C)=O)cc1[N+](=O)[O-])S(C)(=O)=O
inactive: PC-3 > 100 µM | OVCAR-3 > 100 µM | OVCAR-5 > 100 µM | HCC 2998 > 100 µM | NCI/ADR-RES > 100 µM | COLO 205 > 100 µM | SNB-19 > 100 µM | A549 > 100 µM | CCRF-CEM > 100 µM | RPMI-8226 > 100 µM | MDA-MB-435 > 100 µM | BT-549 > 100 µM | Malme-3M 10.1 µM | IGROV-1 > 100 µM | NCI-H226 > 100 µM | RXF 393 > 100 µM | A498 > 100 µM | CAKI-1 > 100 µM | EKVX > 100 µM

Cc1ccc2c(c1)C1(C)OC(C=CC1=O)O2 (stereo unspecified)
inactive: OVCAR-5 1.85 µM | HCC 2998 2.84 µM | SNB-19 2.75 µM | A549 3.24 µM | IGROV-1 2.18 µM | NCI-H226 3.02 µM | A498 3.89 µM | EKVX 2.45 µM
active: PC-3 0.499 µM | OVCAR-3 0.344 µM | NCI/ADR-RES 0.0681 µM | COLO 205 0.384 µM | CCRF-CEM 0.114 µM | RPMI-8226 0.308 µM | MDA-MB-435 0.182 µM | BT-549 0.389 µM | Malme-3M 0.341 µM | RXF 393 0.445 µM | CAKI-1 0.31 µM

CN(C)/C=N/S(=O)(=O)c1nn2c(C=O)c(-c3ccccc3)nc2s1
active: CAKI-1 0.658 µM
inactive: PC-3 14.1 µM | OVCAR-3 8.32 µM | OVCAR-5 47.1 µM | HCC 2998 36.1 µM | NCI/ADR-RES 23.2 µM | COLO 205 4.53 µM | SNB-19 36 µM | A549 26.6 µM | CCRF-CEM 2.96 µM | RPMI-8226 3.43 µM | MDA-MB-435 12.4 µM | BT-549 4.65 µM | Malme-3M 12.9 µM | NCI-H226 21.4 µM | RXF 393 13 µM | A498 67.6 µM | EKVX 30.5 µM

C=C(CC[C@@H](C)[C@H]1CC[C@H]2[C@@H]3C[C@@H](O)[C@H]4C[C@@H](O)CC[C@]4(CO)[C@H]3CC[C@]12C)C(C)C
inactive: PC-3 4.94 µM | OVCAR-3 2.52 µM | OVCAR-5 6.68 µM | NCI/ADR-RES 4.49 µM | COLO 205 7.71 µM | SNB-19 7.98 µM | A549 4.23 µM | CCRF-CEM 3.56 µM | RPMI-8226 5.08 µM | MDA-MB-435 7.45 µM | BT-549 8.09 µM | Malme-3M 6.49 µM | IGROV-1 5.18 µM | NCI-H226 9.29 µM | RXF 393 3.32 µM | A498 6.62 µM | CAKI-1 5.64 µM | EKVX 2.1 µM
active: HCC 2998 0.382 µM

Cc1c(-c2ccccc2)nn2cc(-c3ccccc3)nnc12
inactive: PC-3 19.6 µM | OVCAR-3 32.7 µM | OVCAR-5 30.7 µM | HCC 2998 15.5 µM | NCI/ADR-RES 39.1 µM | COLO 205 22.2 µM | SNB-19 40.8 µM | A549 17.5 µM | CCRF-CEM 27.4 µM | RPMI-8226 35.5 µM | MDA-MB-435 29.5 µM | BT-549 25.2 µM | Malme-3M 13.3 µM | IGROV-1 21.7 µM | NCI-H226 21.2 µM | RXF 393 18.2 µM | A498 56.6 µM | CAKI-1 45.7 µM

c1ccc2c(c1)Sc1nccc3ccnc-2c13
inactive: PC-3 39.2 µM | OVCAR-3 > 100 µM | OVCAR-5 > 100 µM | HCC 2998 33.3 µM | NCI/ADR-RES 25.2 µM | COLO 205 48.3 µM | SNB-19 20.7 µM | CCRF-CEM 56.9 µM | RPMI-8226 55.5 µM | MDA-MB-435 39.5 µM | BT-549 77.1 µM | Malme-3M 31.6 µM | IGROV-1 27.7 µM | NCI-H226 27.9 µM | RXF 393 63.8 µM | A498 16.6 µM | CAKI-1 7.13 µM | EKVX 10.6 µM

Nc1nc(Cl)cc(NCC2(CO)CC(CCCc3ccccc3)C2)n1 (stereo unspecified)
inactive: PC-3 > 81.3 µM | OVCAR-3 > 100 µM | OVCAR-5 > 100 µM | HCC 2998 > 100 µM | NCI/ADR-RES 4.86 µM | COLO 205 > 100 µM | SNB-19 > 71.1 µM | A549 14.7 µM | CCRF-CEM > 73.1 µM | RPMI-8226 > 100 µM | MDA-MB-435 > 100 µM | BT-549 > 100 µM | Malme-3M > 100 µM | IGROV-1 > 72.8 µM | NCI-H226 > 100 µM | RXF 393 > 47.1 µM | A498 > 63.1 µM | CAKI-1 > 100 µM | EKVX > 25.3 µM

Cc1nc(N)sc1/N=N/c1ccccc1Br
inactive: PC-3 33.3 µM | OVCAR-3 38.2 µM | OVCAR-5 41.6 µM | HCC 2998 8.87 µM | NCI/ADR-RES 39.4 µM | COLO 205 > 54.7 µM | SNB-19 > 44.5 µM | A549 > 53.7 µM | CCRF-CEM 3.75 µM | RPMI-8226 65.3 µM | MDA-MB-435 24.3 µM | BT-549 24.7 µM | Malme-3M 26.2 µM | IGROV-1 24.1 µM | NCI-H226 39.7 µM | RXF 393 21.8 µM | A498 14.2 µM | CAKI-1 43.5 µM | EKVX 18.3 µM

COC(=O)n1c(=O)n(-c2ccccc2)c(=O)n1C(=O)OC
inactive: PC-3 > 100 µM | OVCAR-3 > 100 µM | OVCAR-5 > 100 µM | HCC 2998 > 100 µM | NCI/ADR-RES > 100 µM | COLO 205 > 100 µM | SNB-19 > 100 µM | A549 > 100 µM | CCRF-CEM > 100 µM | RPMI-8226 > 100 µM | MDA-MB-435 > 100 µM | BT-549 > 100 µM | Malme-3M > 100 µM | IGROV-1 > 100 µM | NCI-H226 > 100 µM | RXF 393 > 100 µM | A498 > 100 µM | CAKI-1 > 100 µM | EKVX > 100 µM

From ChEMBL document CHEMBL1201862, “PubChem BioAssay data set” (2004)
